Data reported in patent US20240358829A1, “Lymphocyte Population and Methods for Producing Same” (AVM Biotechnology, LLC, priority 2021, published 2024).
“Also recorded” adds a separate entry of the source. Read-outs that look alike come from different tables or passages of the source.

Columns and labels:
[1] = tested on: AVM-NKT cells (CD3highCD49b+); type: in vivo, mouse
Source text: Mice were anesthetized with isoflurane gas.

A20 B cell lymphoma = tested on: A20 B cell lymphoma
Description: FIG. 10B. […] Mice were inoculated with A20 lymphoma 2×10^6 cells in 100 μL of PBS mixed with 100 μL of chilled Matrigel into their flank. Three, 24 and 48 hours later mice were euthanized and tumors, blood, bone marrow and thymus were taken and made into single cell suspensions for flow cytometry detection of live A20 cells.

[2] = tested on: AVM-NKT cells (CD45 dim, CD56 very bright); test: Flow cytometry of human subjects treated with acute high doses of dexamethasone (Example 7); type: in vivo; conditions: prostate cancer patient, 6 mg/kg (fourth infusion)
[3] = tested on: CD56+γδTCR+ NKT-like cells
Description: For characterisation of the induced/mobilized population of NKT-like cells (AVM-NKT) in humans, whole blood from human subjects was drawn in K2 EDTA Vacutainer tube (367862, BD Biosciences, NJ) and shipped to AVM Biotechnology at room temperature. 100 μl of whole blood was stained with the following antibodies: CD45 AF700 (2D1), CD16 APC (3G8), INKT PECy7 (6B11), CD8 PE (SK1), CD14 FITC (M5E2), CD56 BV650 (5.1H11), γδTCR BV510 (B1), CD19 BV421 (HIB19), NKp44 APC (P44-8) (all from Biolegend, San Diego, CA) and CD3 APCVio770 (BW264/56), (Miltenyi Biotec, San Jose, CA), 7-AAD, (Biolegend, San Diego CA) was included to distinguish the live and dead cells. Antibody staining was performed for 15 minutes at room temperature. Erythrocytes present in the sample were lysed using BD FACS lyse (BD Biosciences, San Diego CA) for 10 minutes at room temperature, then washed and resuspended in 300 μl 1×DPBS CMF. Healthy patient blood from BloodWorks (Seattle, WA), unstained and fluorescence minus one (FMO) were included as controls. 250 μl sample was analyzed on MACSQuant 16 (Serial #40150, Miltenyi Biotec, San Jose, CA) flow cytometer. Data was analyzed using Kaluza 2.1 (Beckman Coulter Lifesciences, Indianapolis, IN) software for different immune population. Data obtained from flow cytometry analyzed by Kaluza were combined to determine different cell populations gated from Live CD45 Lymphocytes: CD3+ T cell, CD8+ cytotoxic T cell, CD3+CD56+ (NKT cells) CD3-CD56+, CD3-CD56bright (NK cells) and CD3-CD19+ (B cells), CD3+γδTCR+ cells, CD3+γδTCR bright cells, CD3+iTCR+ cells, Live WBC CD3-CD16bright granulocytes, Live WBC CD3-CD14+ monocytes. Numbers were reported as % WBC and as cells per μl.

R/R NHL = test: AVM0703 R/R NHL clinical trial, clinical and PET/CT response, survival; type: in vivo, human
[4] = AVM0703 R/R NHL clinical trial, blood counts; type: in vivo, human
[5] = Compassionate use patients treated with AVM0703; type: in vivo, human
[6] = patient 108-001, after the second 9 mg/kg infusion

C[C@@H]1C[C@H]2[C@@H]3CCC4=CC(=O)C=C[C@]4(C)[C@@]3(F)[C@@H](O)C[C@]2(C)[C@@]1(O)C(=O)COP(=O)(O)O [AVM0703, dexamethasone sodium phosphate]
location of induced AVM-NKT cells ([1]; naïve male Balb/c mice, 48 hours after doses about 29 mg/kg and higher (given as DP)): Induced in Bone Marrow and Fat Tissue | location of induced AVM-NKT cells ([1]; naïve male C57Bl/6 mice): in blood | Presence of AVM-NKT cells, 48 hrs spleen ([1]; naïve mice): positive | time of maximal ablation of A20 lymphoma implanted in the flank (A20 B cell lymphoma; 18 mg/kg HED): ~3 h | Presence of AVM-NKT cells, 48 hrs blood (A20 B cell lymphoma; A20 model): negative | growth of the A20 B cell lymphoma (A20 B cell lymphoma; HED 18.1 mg/kg PO, repeat dosing, vs placebo): significantly delays growth | location of AVM-NKT cells (A20 B cell lymphoma; male tumor bearing Balb/c mice): in tumors | tumor necrosis (A20 B cell lymphoma; study A20-3, dose response curve, 18&26 mg/kg, doses on days 10, 17, 25, 32, 39): 18&26 mg/kg 50-80% necrotic | novel CD45dim CD56 very bright cell population in blood ([2]; 1 hour after infusion, 6 mg/kg): observed; also recorded: evident | novel CD45dim CD56 very bright cell population in blood ([2]; 3 hours after infusion): no longer observed | % of the CD56+ cells positive for both γδTCR and iTCR ([3]; lysed whole blood, FIG. 14): 51% | CD8 dim/-, % CD56+γδTCR+ ([3]; representative subject): ~98% | CD14+, % CD56+γδTCR+ ([3]; representative subject): 67% | CD16+, % CD56+γδTCR+ ([3]; representative subject): 86% | CD19+, % CD56+γδTCR+ ([3]; representative subject): 85% | NKp44 positive, % CD56+γδTCR+ ([3]; representative subject): ~97% | iNKT positive, % CD56+γδTCR+ ([3]; representative subject): ~96% | CD56+γδTCR+ cells, % of WBC ([3]; whole blood, within 30 minutes post infusion): 1.64% | CD16 and NKp46 expression, % of the AVM_NKT cells ([3]; γδTCR+iTCR+ quadrant, FIG. 14): ~100% | Survival from 1st AVM0703 (months) (R/R NHL; patient 101-001, B-ALL, 6 mg/kg X1): 4.8 months | Survival from 1st AVM0703 (months) (R/R NHL; patient 103-002, PTCL, 6 mg/kg X1): 7 months | Survival from 1st AVM0703 (months) (R/R NHL; patient 103-004, T-ALL, 6 mg/kg X1): 2.7 months | Survival from 1st AVM0703 (months) (R/R NHL; patient 103-005, MCL, 9 mg/kg X1): 8.3 months | Survival from 1st AVM0703 (months) (R/R NHL; patient 103-006, DLBCL, 9 mg/kg X1, ongoing): >12.6 months | Survival from 1st AVM0703 (months) (R/R NHL; patient 103-007, MCL, 12 mg/kg X1, ongoing): >7.6 months | Survival from 1st AVM0703 (months) (R/R NHL; patient 103-008, DLBCL, 18 mg/kg X1, ongoing): >2.1 months | clinical response (R/R NHL; patient 108-001, 9 mg/kg, day 3 after 1st infusion): restoration of vision | Survival from 1st AVM0703 (months) (R/R NHL; patient 108-001, CNS B-ALL, 9 mg/kg X3, ongoing): >11.8 months | CNS solid tumor (R/R NHL; [6]): not evident | reduction of CSF blasts (R/R NHL; [6]): 40% | response to the third infusion (R/R NHL; patient 108-001, third 9 mg/kg infusion): loss of response | Survival from 1st AVM0703 (months) (R/R NHL; patient 108-002, PTCL, 18 mg/kg X1, ongoing): >10.3 months | central Lugano 28 Day (R/R NHL; patient 108-002, PTCL, 18 mg/kg, monotherapy): PR with SD | Survival from 1st AVM0703 (months) (R/R NHL; patient 108-003, AITCL, 12 mg/kg X2, ongoing): >10.2 months | objective beneficial response (PET/CT, clinical chemistries, CBCs or clinical symptoms) (R/R NHL; patient 108-004, 12 mg/kg): did not have any objective clinical beneficial response; also recorded: did not have an objective beneficial response; also recorded: no response to treatment | Survival from 1st AVM0703 (months) (R/R NHL; patient 108-004, DLBCL, 12 mg/kg X1, ongoing): >8 months | WBCs, lymphocytes, platelets and RBCs ([4]; AVM0703-001 dose-escalation phase, doses between 6 mg/kg and 18 mg/kg): not depleted | hemoglobin ([4]; R/R MCL patient, after 9 mg/kg infusion): clinically significantly increased | Absolute lymphocyte counts (lymphocytosis) ([4]; patient 103-007 (mantle cell lymphoma), 12 mg/kg infusion, between day 4 and 7, 12 mg/kg): reduced to normal lymphocyte levels; also recorded: reduced lymphocytes | monocytes, platelets, hematocrit and RBCs ([4]; patient 103-007, 12 mg/kg): spares normal blood cells; also recorded: not reduced | neutrophils ([4]; patients in the AVM0703-001 trial in R/R NHL): some evidence of increased neutrophils | time to immune infiltrate (skin turning red over the tumor area) ([5]; compassionate use patient with CNS squamous cell carcinoma, after starting an 18 mg/kg infusion): ≤ 30 min | neutrophil production ([5]; compassionate use patient without neutrophils for 6 years): began making healthy active neutrophils
